From patent publication US4086417A, “Cytidine nucleotide derivatives” (Asahi Kasei Kogyo Kabushiki Kaisha, priority 1974, dated 1978)
Converted amounts (≈) assume the structure as drawn. Structures can show the parent of a compound that is named as a salt. Where two headings read alike, the source gives them in different places.

Columns and labels:
[1] = Solubility test: solubility in water; type: physicochemical
Excerpt: In the aforesaid examples, the products were obtained as white solids.
In Table 1, -Ara-C means "-1-β-D-arabinofuranosylcytosine" and -5'-Pna and -5'-PNa2 mean "-1-β-D-arabinofuranosylcytosine-5'-phosphate monosodium salt" and "-1-β-D-arabinofuranosylcytosine-5'-phosphate disodium salt," respectively.

leukemia L-1210 [2] = test: Antitumour activity in mice inoculated intraperitoneally with leukemia L-1210 (survival, T/C); type: in vivo, CDF-1 male mice; conditions: Mus musculus, L1210, ip, directly after injection of L-1210, after 2 days and after 6 days; for response vs control in vivo at 100 mg/kg: 100 mg/kg i.p.; for response vs control in vivo at 200 mg/kg: 200 mg/kg i.p.; for response vs control in vivo at 400 mg/kg: 400 mg/kg i.p.
Protocol: The antitumour activity for mice of the test material was evaluated by means of survival rate comparison, T/C (%), that is, 100 times the mean survival period of the groups injected with the test material divided by the mean survival period of the comparison groups which were not injected with the test material.
Further, for comparison, the following materials were also subjected to the same biological test: […]

[3] = cited from earlier work
leukemia L-1210 [4] = conditions: background; cited from earlier work
deoxycytidine deaminase = conditions: background; cited from earlier work

| Compound | Solubility in water [1] [µg/mL] | response vs control in vivo at 100 mg/kg (leukemia L-1210 [2]) [%] | response vs control in vivo at 200 mg/kg (leukemia L-1210 [2]) [%] | response vs control in vivo at 400 mg/kg (leukemia L-1210 [2]) [%] | other results |
| --- | --- | --- | --- | --- | --- |
| CCCCCCCCCCCCCCCCCCCCCCCCCCCC(=O)Nc1ccn([C@@H]2O[C@H](COP(=O)(O)O)[C@@H](O)[C@@H]2O)c(=O)n1 [N^4 -Montanoyl-5'-PNa2] | > 5000 | – | – | – | – |
| CCCCCCCCCCCCCCCCC(=O)Nc1ccn([C@@H]2O[C@H](COP(=O)(O)O)[C@@H](O)[C@@H]2O)c(=O)n1 [N^4 -Margaroyl-5'-PNa2] | > 50000 | – | – | – | – |
| CCCCCCCCCCCCCCCCCC(=O)Nc1ccn([C@@H]2O[C@H](COP(=O)(O)O)[C@@H](O)[C@@H]2O)c(=O)n1 [N^4 -Stearoyl-5'-PNa2, N^4-stearoyl-1-β-D-arabinofuranosylcytosine-5'-phosphate disodium salt] | – | – | – | – | Solubility in water ([1]; disodium salt): > 50000 µg/mL |
| CCCCCCCC/C=C\CCCCCCCC(=O)Nc1ccn([C@@H]2O[C@H](COP(=O)(O)O)[C@@H](O)[C@@H]2O)c(=O)n1 [N^4 -Oleoyl-5'-PNa, N^4-oleoyl-1-β-D-arabinofuranosylcytosine-5'-phosphate monosodium] | > 50000 | 270 | 156 | 103 | – |
| Nc1ccn([C@@H]2O[C@H](CO)[C@@H](O)[C@@H]2O)c(=O)n1 [Ara-C, 1-β-D-arabinofuranosylcytosine] | – | 127 | 136 | 164 | Biological half life / excretion (in words) ([3]; background): the biological half life of the medicament is short; Antileukemial activity (in words) (leukemia L-1210 [4]): one of the most effective known antileukemial agents; Deamination / resistance to deaminase (in words) (deoxycytidine deaminase): readily converted into uracil arabinoside |
| CCCCCCCCCCCCCCCCC(=O)Nc1ccn([C@@H]2O[C@H](CO)[C@@H](O)[C@@H]2O)c(=O)n1 [N^4 -Margaroyl-Ara-C] | – | > 397 | 188 | 99 | solubility [1]: < 10 µg/mL |
| CCCCCCCCCCCCCCCC(=O)Nc1ccn([C@@H]2O[C@H](CO)[C@@H](O)[C@@H]2O)c(=O)n1 [N^4 -Palmitoyl-Ara-C, N^4-palmitoyl-1-β-D-arabinofuranosylcytosine] | – | > 346 | 83 | 78 | solubility [1]: 10 µg/mL (≈ 20.8 µM) |
| CCCCCCCCCCCCCCCC(=O)Nc1ccn([C@@H]2O[C@H](COP(=O)(O)O)[C@@H](O)[C@@H]2O)c(=O)n1 [N^4 -Palmitoyl-5'-PNa2] | > 150000 | – | – | – | – |
| CCCCCCCC/C=C\CCCCCCCC(=O)Nc1ccn([C@@H]2O[C@H](COP(=O)(O)O)[C@@H](O)[C@@H]2O)c(=O)n1 [N^4 -Oleoyl-5'-PNa2] | > 250000 | – | – | – | – |
| CCCCCCCCCCCCCCCCCC(=O)Nc1ccn([C@@H]2O[C@H](CO)[C@@H](O)[C@@H]2O)c(=O)n1 [N^4 -Stearoyl-Ara-C, N^4-stearoyl-1-β-D-arabinofuranosylcytosine] | – | > 274 | 123 | 111 | solubility [1]: < 10 µg/mL |
| O=C(Nc1ccn([C@@H]2O[C@H](COP(=O)(O)O)[C@@H](O)[C@@H]2O)c(=O)n1)C12CC3CC(CC(C3)C1)C2 [N^4 -Adamantoyl-5'-PNa, N^4-adamantoyl-1-β-D-arabinofuranosylcytosine-5'-phosphate monosodium] | 2000 | – | – | – | – |
| CCCCCCCC/C=C\CCCCCCCC(=O)Nc1ccn([C@@H]2O[C@H](CO)[C@@H](O)[C@@H]2O)c(=O)n1 [N^4 -Oleoyl-Ara-C] | – | 261 | 135 | 94 | solubility [1]: 50 µg/mL (≈ 98.5 µM) |
| O=C(Nc1ccn([C@@H]2O[C@H](CO)[C@@H](O)[C@@H]2O)c(=O)n1)C12CC3CC(CC(C3)C1)C2 [N^4 -Adamantoyl-Ara-C] | – | – | – | – | solubility [1]: 10 µg/mL (≈ 24.7 µM) |
| CCCCCCCCCCCCCCCCCCCCCCCCCCCC(=O)Nc1ccn([C@@H]2O[C@H](CO)[C@@H](O)[C@@H]2O)c(=O)n1 [N^4 -Montanoyl-Ara-C] | – | – | – | – | solubility [1]: < 10 µg/mL |
| O=c1ccn([C@@H]2O[C@H](CO)[C@@H](O)[C@@H]2O)c(=O)[nH]1 [uracil arabinoside] | – | – | – | – | Antileukemial activity (in words) (leukemia L-1210 [4]): possesses no antileukemial activity |
| CCCCCCCCCCCCCCCCC(=O)Nc1ccn([C@@H]2O[C@H](COP(=O)(O)O)[C@@H](O)[C@@H]2O)c(=O)n1 [N^4 -Margaroyl-5'-PNa, N^4-margaroyl-1-β-D-arabinofuranosylcytosine-5'-phosphate monosodium] | > 10000 | > 395 | > 382 | 101 | – |
| O=C(Nc1ccn([C@@H]2O[C@H](COP(=O)(O)O)[C@@H](O)[C@@H]2O)c(=O)n1)C12CC3CC(CC(C3)C1)C2 [N^4 -Adamantoyl-5'-PNa2] | > 10000 | – | – | – | – |
| CCCCCCCCCCCCCCCCCCCCCCCCCCCC(=O)Nc1ccn([C@@H]2O[C@H](COP(=O)(O)O)[C@@H](O)[C@@H]2O)c(=O)n1 [N^4 -Montanoyl-5'-PNa, N^4-montanoyl-1-β-D-arabinofuranosylcytosine-5'-phosphate monosodium] | 1000 | – | – | – | – |
| CCCCCCCCCCCCCCCC(=O)Nc1ccn([C@@H]2O[C@H](COP(=O)(O)O)[C@@H](O)[C@@H]2O)c(=O)n1 [N^4 -Palmitoyl-5'-PNa, N^4-palmitoyl-1-β-D-arabinofuranosylcytosine-5'-phosphate monosodium] | > 30000 | > 349 | > 342 | 98 | – |
| CCCCCCCCCCCCCCCCCC(=O)Nc1ccn([C@@H]2O[C@H](COP(=O)(O)O)[C@@H](O)[C@@H]2O)c(=O)n1 [N^4 -Stearoyl-5'-PNa, N^4-stearoyl-1-β-D-arabinofuranosylcytosine-5'-phosphate monosodium salt] | – | > 363 | > 338 | 104 | Solubility in water ([1]; monosodium salt): > 10000 µg/mL |
| CCCCC/C=C\C/C=C\CCCCCCCC(=O)Nc1ccn([C@@H]2O[C@H](CO)[C@@H](O)[C@@H]2O)c(=O)n1 [N^4 -Linoleoyl-Ara-C] | – | 268 | 140 | 112 | – |
| N=c1ccn2c(n1)O[C@H]1[C@H](O)[C@@H](CO)O[C@H]12 [2,2'-ANHYDROCYTOSINE ARABINOSIDE, 2,2'-anhydrocytosine arabinoside] | – | – | – | – | Biological half life / excretion (in words) ([3]; in vivo): the biological half life of this derivative is as short as that of cytosine arabinoside; Antileukemial activity (in words) (leukemia L-1210 [4]): does not have antileukemial activity; Deamination / resistance to deaminase (in words) (deoxycytidine deaminase): SHOWS HIGH RESISTANCE TO THE DEAMINOSE |
